Data taken from patent publication US5466809A (Toronto Research Chemicals, Inc., priority 1994, dated 1995).
In brackets after ≈: the same amount, converted by molar mass. Several values for one entry are separate records, joined by “and”; a condition that tells them apart may be missing. Identical values can stand only once. Like-named read-outs stand apart in the source and are kept apart here.

Columns and labels:
[1] = tested on: N-linked oligosaccharide processing; assay: L-PHA lectin sensitivity assay for inhibition of N-linked oligosaccharide processing; assay type: cell-based
Experimental: This test also indicates whether the compounds enter tumor cells and measures the degree of toxicity of the compounds for cells. The test is described in J. W. Dennis, Cancer Research 46:5131, 1986.
Essentially, 2×10^4 cells are placed in individual wells of a 96-well microtest plate, wherein the wells contain serial dilutions of the compounds to be tested. […] […] The cells are then harvested and the amount of radioactivity incorporated into the host cell DNA is measured in a liquid scintillation counter. The amount of radioactivity present in cells in wells in the absence of L-PHA reflects the toxicity of the test compound and the amount of radioactivity present in the presence of L-PHA reflects the level of inhibition of oligosaccharide processing induced by the test compound.

[2] = molecular target: T1, Jack Bean alpha-mannosidase (Canavalia ensiformis, UniProt C0HJB3); assay: Jack Bean alpha-mannosidase assay; assay type: biochemical; details: pH 6.0, 37° C., 30 minutes, p-nitrophenyl-alpha-D-mannopyranoside substrate; read-out: D50 Values (Inhibition), J.B. mannosidase (converted)
T1 sequence (C0HJB3 1-981): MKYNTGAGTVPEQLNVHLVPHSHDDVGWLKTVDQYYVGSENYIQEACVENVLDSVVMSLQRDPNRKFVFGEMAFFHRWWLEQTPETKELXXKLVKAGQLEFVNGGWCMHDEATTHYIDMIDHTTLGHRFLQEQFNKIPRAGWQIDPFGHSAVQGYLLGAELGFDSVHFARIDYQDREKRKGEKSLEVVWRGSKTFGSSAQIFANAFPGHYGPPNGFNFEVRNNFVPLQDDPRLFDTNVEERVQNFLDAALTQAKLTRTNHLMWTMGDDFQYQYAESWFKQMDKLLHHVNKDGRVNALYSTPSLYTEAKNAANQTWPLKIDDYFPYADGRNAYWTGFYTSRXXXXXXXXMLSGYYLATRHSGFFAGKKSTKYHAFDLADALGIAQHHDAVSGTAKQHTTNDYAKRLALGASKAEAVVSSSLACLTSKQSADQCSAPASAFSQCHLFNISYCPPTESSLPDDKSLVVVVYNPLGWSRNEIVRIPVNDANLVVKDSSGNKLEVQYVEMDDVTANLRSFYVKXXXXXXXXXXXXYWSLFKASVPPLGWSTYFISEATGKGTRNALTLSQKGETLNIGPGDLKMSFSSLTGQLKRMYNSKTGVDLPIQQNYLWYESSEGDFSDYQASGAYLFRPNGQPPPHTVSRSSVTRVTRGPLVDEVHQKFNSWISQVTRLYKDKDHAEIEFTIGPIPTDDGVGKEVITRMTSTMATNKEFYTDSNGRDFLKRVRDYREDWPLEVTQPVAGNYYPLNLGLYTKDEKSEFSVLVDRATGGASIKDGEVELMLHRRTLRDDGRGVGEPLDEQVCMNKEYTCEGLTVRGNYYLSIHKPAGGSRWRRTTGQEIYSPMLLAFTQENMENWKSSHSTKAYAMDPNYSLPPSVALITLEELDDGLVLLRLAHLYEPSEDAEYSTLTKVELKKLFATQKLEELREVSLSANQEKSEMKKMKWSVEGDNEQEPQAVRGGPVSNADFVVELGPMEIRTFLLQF
Experimental: Jack Bean alpha-Mannosidase Assay. […] A volume (37.5 ul) of 0.05M sodium acetate (pH 6.0) was added to each well, followed by 37.5 ul of 0.01M p-nitrophenyl-alpha-D-mannopyanoside, and then 10 ul of a 1:400 dilution of Jack Bean alpha-mannosidase. After thoroughly shaking to mix, the mixture was incubated at 37° C. for 30 minutes. The reaction was stopped by the addition of 150 ul of 0.5M sodium carbonate (pH 10.0). The absorbance at 405 nm of the solution in the wells was determined in an ELISA plate reader.

bone marrow cells [3] = assay: In vivo bone marrow CFU formation and bone marrow cellularity, dose dependent effect; design: species or system C57BL/6 mice; details: for optimal dose / Effect on bone marrow cellularity and CFU formation compared with swainsonine (summary) / Effect on bone marrow cellularity and CFU formation (summary): summary of experiments; for Effect on bone marrow cellularity and CFU formation compared with swainsonine (summary): for 3 and 23 versus 10 μg swainsonine; for Mean of CFU Formation / Mean of Cellularity: 4 days
Text: (§1) Assay for Bone Marrow Cell Proliferation Induced by Swansonine Analogues. Pathogen-free C57BL/6 mice at 8-14 weeks of age were quarantined for one week prior to their use in the experiments described below. Mice were inoculated intraperitoneally twice daily with a designated dose of swainsonine or an analogue of swainsonine for a period of four days. Eighteen hours following the last injection, the mice were sacrificed, bone marrow cells were obtained using standard technology (S. C. White et al., J. Natl. Cancer Inst. 83 1125, 1991). Cellularity of the bone marrow cells so obtained was determined by directly counting the cells after they were flushed from the femurs and tibia of the mice. The cells were processed according to the procedure described in the GIBCO-BRL Mouse Bone Stem Cell Proliferation Kit, and the number of colony forming units (CFU) was assessed using the procedures also described in the kit. For kinetic experiments, mice were administered 10 ug of the analogue (this was the optimum dose in all cases) twice daily for the designated number of days. The experiments were designed so that all regimens terminated on the same day. Eighteen hours after the last injection, the mice were sacrificed and bone marrow cells were obtained and processed as described above.

bone marrow cells [4] = assay: In vivo bone marrow CFU formation and cellularity, time course (kinetic experiments); design: species or system C57BL/6 mice; details: 10 μg twice daily i.p.
Text: as §1

[5] = L-PHA assay, 3H-thymidine incorporation, read-out: D50 Values (Inhibition), L-PHA assay
[6] = Expt. 1, 10 μg twice daily i.p.
[7] = Expt. 1, 20 μg twice daily i.p.
[8] = Expt. 1, 40 μg twice daily i.p.
[9] = Expt. 2, 10 μg twice daily i.p.

SMILES	IC50 [1, 5]	IC50 [2]	Mean of CFU Formation (bone marrow cells [3]; Expt. 1, 5 μg twice daily i.p.)	Mean of Cellularity (bone marrow cells [3]; Expt. 1, 5 μg twice daily i.p.)	Mean of CFU Formation (bone marrow cells [3]; [6])	Mean of Cellularity (bone marrow cells [3]; [6])	Mean of CFU Formation (bone marrow cells [3]; [7])	Mean of Cellularity (bone marrow cells [3]; [7])	Effect on bone marrow cellularity and CFU formation (summary) (bone marrow cells [3])	also measured
CCCC(=O)O[C@@H]1CN2CCC[C@@H](O)[C@@H]2[C@@H]1O [Compound 3, 1S-8a-β-2-alpha-butanoyloxyoctahydroindolizine-1-alpha-8-β-diol]	0.066 µg/mL (≈ 0.271 µM)	144 µM								amount of radioactivity incorporated by cells ([1]; 3H-thymidine incorporation, compared with swainsonine): comparable to that of swainsonine; optimal dose (bone marrow cells [3]): 10 µg; Effect on bone marrow cellularity and CFU formation compared with swainsonine (summary) (bone marrow cells [3]): comparable to
O=C(O[C@@H]1CN2CCC[C@@H](O)[C@@H]2[C@@H]1O)c1ccccc1 [Compound 5, 1S-8a-β-2-alpha-benzoyloxyoctahydroindolizine-1-alpha-8-β-diol]	0.5 µg/mL (≈ 1.8 µM)	252 µM	200 CFU	2.91 × 10^7	324 CFU	5.76 × 10^7	293 CFU	3.07 × 10^7	Stimulates CFU & cellularity	Mean of CFU Formation (bone marrow cells [3]; [8]): 287 CFU; Mean of Cellularity (bone marrow cells [3]; [8]): 3.07 × 10^7; Mean of Cellularity (bone marrow cells [3]; Expt. 2, 5 μg twice daily i.p.): 3.33 × 10^7; Mean of Cellularity (bone marrow cells [3]; [9]): 4.76 × 10^7; Mean of Cellularity (bone marrow cells [3]; Expt. 2, 20 μg twice daily i.p.): 3.38 × 10^7; Mean of CFU Formation (bone marrow cells [4]; 1 day): 250 CFU; Mean of Cellularity (bone marrow cells [4]; 1 day): 3.00 × 10^7; Mean of CFU Formation (bone marrow cells [4]; 2 days): 436 CFU; Mean of Cellularity (bone marrow cells [4]; 2 days): 4.18 × 10^7; Mean of CFU Formation (bone marrow cells [4]; 3 days): 568 CFU; Mean of Cellularity (bone marrow cells [4]; 3 days): 5.59 × 10^7; Mean of CFU Formation (bone marrow cells [4]; 4 days): 623 CFU; Mean of Cellularity (bone marrow cells [4]; 4 days): 7.42 × 10^7; Mean of CFU Formation (bone marrow cells [4]; 5 days): 621 CFU; Mean of Cellularity (bone marrow cells [4]; 5 days): 6.88 × 10^7; Mean of CFU Formation (bone marrow cells [4]; 6 days): 518 CFU; Mean of Cellularity (bone marrow cells [4]; 6 days): 5.24 × 10^7
CCOC1CC(=O)N2C[C@@H](O)[C@@H](O)[C@H]2[C@@H]1O (stereo partly drawn) [Compound 23, 7-ethoxy-(1S,2R,8R,8aR)-1,2,8-trihydroxy-octahydro-5-oxyindolizine]	> 1 µg/mL	43.2 µM								optimal dose (bone marrow cells [3]): 10 µg; Effect on bone marrow cellularity and CFU formation compared with swainsonine (summary) (bone marrow cells [3]): comparable to
O[C@@H]1[C@H](O)[C@H](O)CN2C[C@@H](O)[C@@H](O)[C@@H]12 [Compound 36, 1S-1-alpha-2-alpha-6β,7β-8β-pentahydroxy-8a-β-octahydroindolizine]			291 CFU	2.28 × 10^7	545 CFU	5.27 × 10^7	327 CFU	2.59 × 10^7		
Cc1ccc(C(=O)O[C@@H]2CN3CCC[C@@H](O)[C@@H]3[C@@H]2O)cc1 [Compound 41, 1S-8a-β-2-alpha-p-toluoyloxyoctahydroindolizine-1-alpha-8-β-diol]	1 µg/mL (≈ 3.43 µM)	343 µM	195 CFU	2.22 × 10^7	359 CFU	2.99 × 10^7	214 CFU	2.14 × 10^7	Stimulates CFU & cellularity	
O=C(O[C@@H]1CN2CCC[C@@H](O)[C@@H]2[C@@H]1O)c1ccc([N+](=O)[O-])cc1 [Compound 42, 1S-8a-β-2-alpha-p-nitorbenzoyloxyoctahydroindolizine-1-alpha-8-β-diol]	0.066 µg/mL (≈ 0.205 µM)	109 µM	213 CFU	2.68 × 10^7	373 CFU	3.21 × 10^7	242 CFU	2.63 × 10^7	Stimulates CFU & cellularity	
O=C1N[C@@H]2[C@@H](O)[C@@H](O)[C@H](O)[C@@H](CO)N2C1=O [Kefunensine, reference compound]	1 µg/mL (≈ 4.31 µM)	151 µM								
O[C@H]1[C@H]2[C@H](O)CCCN2C[C@H]1O [swainsonine, 1S-8a-β-octahydroindolizine-1-alpha-2-alpha-8-β-triol, reference compound]	0.033 µg/mL (≈ 0.191 µM)				550 CFU and 446 CFU	5.86 × 10^7 and 3.73 × 10^7				IC50 ([1]; 30 ug/ml L-PHA, read-out: I50): ~0.02 µg/mL and ~100 nM; Mean of Cellularity (bone marrow cells [3]; [9]): 5.76 × 10^7
